{
  "source": "patent US8471005B2",
  "about": "(Cephalon, Inc., priority 2008, dated 2013)",
  "key": {"ALK": {"target": "T1, ALK (Homo sapiens, UniProt Q9UM73)", "T1 construct": "host or cells: baculovirus expression system", "T1 sequence (Q9UM73 19-1620)": "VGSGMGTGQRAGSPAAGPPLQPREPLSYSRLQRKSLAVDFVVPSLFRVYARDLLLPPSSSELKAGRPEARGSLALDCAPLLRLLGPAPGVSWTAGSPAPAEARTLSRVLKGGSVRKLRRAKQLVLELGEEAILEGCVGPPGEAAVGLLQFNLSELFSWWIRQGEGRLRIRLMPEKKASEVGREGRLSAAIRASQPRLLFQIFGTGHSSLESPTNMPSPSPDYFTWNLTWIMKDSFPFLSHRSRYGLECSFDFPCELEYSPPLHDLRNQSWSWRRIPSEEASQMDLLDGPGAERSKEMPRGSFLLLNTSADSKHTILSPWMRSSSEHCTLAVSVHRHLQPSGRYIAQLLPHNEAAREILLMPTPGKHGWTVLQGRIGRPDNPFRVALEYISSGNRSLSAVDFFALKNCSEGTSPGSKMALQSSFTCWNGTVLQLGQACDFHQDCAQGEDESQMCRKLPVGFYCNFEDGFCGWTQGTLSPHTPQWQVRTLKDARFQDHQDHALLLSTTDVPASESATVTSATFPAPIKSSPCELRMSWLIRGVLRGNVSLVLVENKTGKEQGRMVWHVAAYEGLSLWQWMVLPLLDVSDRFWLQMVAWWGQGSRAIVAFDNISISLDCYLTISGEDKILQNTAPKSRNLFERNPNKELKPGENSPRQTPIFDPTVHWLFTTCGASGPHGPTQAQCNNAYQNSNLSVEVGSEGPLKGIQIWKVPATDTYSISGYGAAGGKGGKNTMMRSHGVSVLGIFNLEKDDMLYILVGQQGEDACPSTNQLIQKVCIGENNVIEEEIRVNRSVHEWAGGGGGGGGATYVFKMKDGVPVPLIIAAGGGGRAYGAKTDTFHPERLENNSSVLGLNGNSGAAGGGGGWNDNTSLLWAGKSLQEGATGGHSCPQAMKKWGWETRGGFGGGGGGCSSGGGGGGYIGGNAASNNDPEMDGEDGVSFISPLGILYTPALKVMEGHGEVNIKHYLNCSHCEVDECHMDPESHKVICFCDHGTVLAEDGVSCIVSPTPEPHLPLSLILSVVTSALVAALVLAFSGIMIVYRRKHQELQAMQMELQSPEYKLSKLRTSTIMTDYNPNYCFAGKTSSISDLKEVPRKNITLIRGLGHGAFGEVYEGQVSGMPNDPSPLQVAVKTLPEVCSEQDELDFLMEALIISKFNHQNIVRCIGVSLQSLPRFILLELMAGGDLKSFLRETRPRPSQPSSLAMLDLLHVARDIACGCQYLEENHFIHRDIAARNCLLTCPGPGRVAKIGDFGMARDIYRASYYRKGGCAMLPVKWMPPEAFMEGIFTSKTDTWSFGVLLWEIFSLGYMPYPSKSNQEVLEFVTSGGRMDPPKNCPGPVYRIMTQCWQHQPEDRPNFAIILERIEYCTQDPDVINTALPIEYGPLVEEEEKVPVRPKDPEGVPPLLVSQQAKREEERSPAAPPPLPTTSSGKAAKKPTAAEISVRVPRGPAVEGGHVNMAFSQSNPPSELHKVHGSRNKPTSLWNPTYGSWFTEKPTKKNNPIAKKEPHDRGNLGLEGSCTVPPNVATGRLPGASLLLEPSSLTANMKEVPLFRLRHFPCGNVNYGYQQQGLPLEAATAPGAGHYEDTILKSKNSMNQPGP", "assay": "ALK Kinase Assay (ELISA/TRF, PLC-γ substrate)", "format": "biochemical", "conditions": "read-out: ALK Potency", "summary_of_the_method": "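PLC-γ substrate coated at 10 μg/mL in TBS; reaction started with 30 ng/ml ALK, run 15 min at 37° C. Phosphoproduct detected by TRF with Eu-N1-labeled PT66 anti-phosphotyrosine antibody. IC50 from sigmoidal variable-slope fit of percent inhibition versus log concentration.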"}, "JAK2": {"target": "T2, JAK2 (Homo sapiens, UniProt O60674)", "T2 construct": "host or cells: baculovirus expression system", "T2 sequence (O60674 whole entry)": "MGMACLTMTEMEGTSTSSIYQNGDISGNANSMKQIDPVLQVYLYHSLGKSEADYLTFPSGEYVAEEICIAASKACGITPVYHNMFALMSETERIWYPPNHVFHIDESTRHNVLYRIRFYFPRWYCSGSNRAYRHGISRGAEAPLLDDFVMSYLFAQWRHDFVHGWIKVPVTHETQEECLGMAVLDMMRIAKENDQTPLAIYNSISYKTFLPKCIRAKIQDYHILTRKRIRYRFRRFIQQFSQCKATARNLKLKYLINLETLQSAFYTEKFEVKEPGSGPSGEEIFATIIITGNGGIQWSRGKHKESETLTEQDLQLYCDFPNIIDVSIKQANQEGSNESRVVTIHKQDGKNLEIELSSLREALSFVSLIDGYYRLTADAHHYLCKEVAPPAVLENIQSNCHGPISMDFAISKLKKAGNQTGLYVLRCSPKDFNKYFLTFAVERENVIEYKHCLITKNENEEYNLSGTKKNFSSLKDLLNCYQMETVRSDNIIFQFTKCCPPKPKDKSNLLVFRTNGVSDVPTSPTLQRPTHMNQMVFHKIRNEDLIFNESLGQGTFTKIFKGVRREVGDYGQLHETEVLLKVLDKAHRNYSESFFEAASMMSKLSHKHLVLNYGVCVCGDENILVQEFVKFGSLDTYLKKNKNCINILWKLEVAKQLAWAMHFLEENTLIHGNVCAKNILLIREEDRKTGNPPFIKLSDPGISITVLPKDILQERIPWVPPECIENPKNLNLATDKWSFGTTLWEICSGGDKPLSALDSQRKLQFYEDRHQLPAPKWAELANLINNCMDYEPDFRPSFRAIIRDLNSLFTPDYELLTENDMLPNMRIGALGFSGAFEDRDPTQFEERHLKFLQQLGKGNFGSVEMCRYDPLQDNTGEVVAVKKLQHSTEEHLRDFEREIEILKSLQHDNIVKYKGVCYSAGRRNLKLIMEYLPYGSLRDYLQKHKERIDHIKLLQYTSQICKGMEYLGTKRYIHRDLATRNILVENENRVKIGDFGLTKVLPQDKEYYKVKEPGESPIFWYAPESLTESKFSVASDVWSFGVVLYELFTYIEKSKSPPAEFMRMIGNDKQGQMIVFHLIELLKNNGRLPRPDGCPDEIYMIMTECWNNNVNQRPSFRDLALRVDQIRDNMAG", "assay": "Recombinant Human JAK2 Kinase Assay (TRF)", "format": "biochemical", "conditions": "read-out: JAK2 Potency", "summary_of_the_method": "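Europium-labelled PY100 antibody reported tyrosine phosphorylation of a Neutravidin-captured biotinyl 15-mer peptide by JAK2 (baculovirus-expressed, 15 ng/ml). Conditions: 20 mM HEPES pH 7.2, 0.2 μM ATP, 1 mM MnCl2, 0.1% BSA, DMSO 2.5% final, 20 min at room temperature.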"}, "[1]": {"conditions": "ALK kinase inhibition, 1 μM ATP"}, "[2]": {"conditions": "JAK2 kinase inhibition, 0.2 μM ATP"}},
  "note": "Read-outs that look alike come from different tables or passages of the source.",
  "data": [
    {"smiles": "CN1CCN(C)C(c2cccc(Nc3ncc4ccc(-c5cccc(S(=O)(=O)NC(C)(C)C)c5)n4n3)c2)C1=O", "note": "(stereo not shown) [Example 1077, N-tert-Butyl-3-{2-[3-(1,4-dimethyl-3-oxo-piperazin-2-yl)-phenylamino]-pyrrolo[2,1-f][1,2,4]triazin-7-yl}-benzenesulfonamide]", "values": [
      {"measurement": "IC50", "setting": "ALK; [1]", "result": "1000 to 10000", "unit": "nM"},
      {"measurement": "IC50", "setting": "JAK2; [2]", "result": "< 100", "unit": "nM"}
    ]},
    {"smiles": "NC(=O)CN1CCC(c2ccc(Nc3ncc4ccc(C5=CCNCC5)n4n3)cc2)CC1", "note": "[Example 664, 2-(4-{4-[7-(1,2,3,6-Tetrahydro-pyridin-4-yl)-pyrrolo[2,1-f][1,2,4]triazin-2-ylamino]-phenyl}-piperidin-1-yl)-acetamide]", "values": [
      {"measurement": "IC50", "setting": "ALK; [1]", "result": "100 to 1000", "unit": "nM"},
      {"measurement": "IC50", "setting": "JAK2; [2]", "result": "< 100", "unit": "nM"}
    ]},
    {"smiles": "COc1cc(CN2C[C@@H](O)[C@H](O)C2)ccc1Nc1ncc2ccc(-c3ccccc3OC)n2n1", "note": "[Example 1237, (3R,4R)-1-{3-Methoxy-4-[7-(2-methoxy-phenyl)-pyrrolo[2,1-f][1,2,4]triazin-2-ylamino]-benzyl}-pyrrolidine-3,4-diol]", "values": [
      {"measurement": "IC50", "setting": "ALK; [1]", "result": "< 100", "unit": "nM"},
      {"measurement": "IC50", "setting": "JAK2; [2]", "result": "100 to 1000", "unit": "nM"}
    ]},
    {"smiles": "COc1ccccc1-c1ccc2cnc(Nc3ccc(N4CCC(C(=O)N5CCN(C)CC5)CC4)cc3)nn12", "note": "[Example 444, (1-{4-[7-(2-Methoxy-phenyl)-pyrrolo[2,1-f][1,2,4]triazin-2-ylamino]-phenyl}-piperidin-4-yl)-(4-methyl-piperazin-1-yl)-methanone]", "values": [
      {"measurement": "IC50", "setting": "ALK; ALK Kinase Inhibition", "result": "< 100", "unit": "nM"},
      {"measurement": "IC50", "setting": "JAK2; JAK2 Kinase Inhibition", "result": "< 100", "unit": "nM"}
    ]},
    {"smiles": "COc1cc(C2CCN(CC(=O)N(C)C)CC2)ccc1Nc1ncc2ccc(-c3ccccc3N(C)S(C)(=O)=O)n2n1", "note": "[Example 810, 2-[4-(4-{7-[2-(Methanesulfonyl-methyl-amino)-phenyl]-pyrrolo[2,1-f][1,2,4]triazin-2-ylamino}-3-methoxy-phenyl)-piperidin-1-yl]-N,N-dimethyl-acetamide]", "values": [
      {"measurement": "IC50", "setting": "ALK; [1]", "result": "< 100", "unit": "nM"},
      {"measurement": "IC50", "setting": "JAK2; [2]", "result": "100 to 1000", "unit": "nM"}
    ]},
    {"smiles": "COc1cc2c(cc1Nc1ncc3ccc(-c4cccc5c4OCC5)n3n1)CCN(CCO)CC2", "note": "[Example 704, 2-{7-[7-(2,3-Dihydro-benzofuran-7-yl)-pyrrolo[2,1-f][1,2,4]triazin-2-ylamino]-8-methoxy-1,2,4,5-tetrahydro-3-benzazepin-3-yl}-ethanol]", "values": [
      {"measurement": "IC50", "setting": "ALK; [1]", "result": "< 100", "unit": "nM"},
      {"measurement": "IC50", "setting": "JAK2; [2]", "result": "< 100", "unit": "nM"}
    ]},
    {"smiles": "COc1cc(C2CCNCC2)ccc1Nc1ncc2ccc(-c3ccc(C)cc3N(C)S(C)(=O)=O)n2n1", "note": "[Example 1281, N-{2-[2-(2-Methoxy-4-piperidin-4-yl-phenylamino)-pyrrolo[2,1-f][1,2,4]triazin-7-yl]-5-methyl-phenyl}-N-methyl-methanesulfonamide]", "values": [
      {"measurement": "IC50", "setting": "ALK; [1]", "result": "< 100", "unit": "nM"},
      {"measurement": "IC50", "setting": "JAK2; [2]", "result": "100 to 1000", "unit": "nM"}
    ]},
    {"smiles": "COc1cccc(-c2ccn3nc(Nc4ccc(N5CCN(C)CC5)cc4)ncc23)c1", "note": "[Example 725, [5-(3-Methoxy-phenyl)-pyrrolo[2,1-f][1,2,4]triazin-2-yl]-[4-(4-methyl-piperazin-1-yl)-phenyl]-amine]", "values": [
      {"measurement": "IC50", "setting": "ALK; [1]", "result": "> 10000", "unit": "nM"},
      {"measurement": "IC50", "setting": "JAK2; [2]", "result": "> 10000", "unit": "nM"}
    ]},
    {"smiles": "COc1cc(C2CCN(C(=O)C(C)(C)N)CC2)ccc1Nc1ncc2ccc(-c3ccccc3OC)n2n1", "note": "[Example 821, 2-Amino-1-(4-{3-methoxy-4-[7-(2-methoxy-phenyl)-pyrrolo[2,1-f][1,2,4]triazin-2-ylamino]-phenyl}-piperidin-1-yl)-2-methyl-propan-1-one]", "values": [
      {"measurement": "IC50", "setting": "ALK; [1]", "result": "< 100", "unit": "nM"},
      {"measurement": "IC50", "setting": "JAK2; [2]", "result": "100 to 1000", "unit": "nM"}
    ]},
    {"smiles": "C[S+]([O-])c1ccccc1-c1ccc2cnc(Nc3ccc(N4CCOCC4)cc3)nn12", "note": "(stereo not shown) [Example 405, [7-(2-Methanesulfinyl-phenyl)-pyrrolo[2,1-f][1,2,4]triazin-2-yl]-(4-morpholin-4-yl-phenyl)-amine]", "values": [
      {"measurement": "IC50", "setting": "ALK; ALK Kinase Inhibition", "result": "1000 to 10000", "unit": "nM"},
      {"measurement": "IC50", "setting": "JAK2; JAK2 Kinase Inhibition", "result": "< 100", "unit": "nM"}
    ]},
    {"smiles": "CC(C)(C)NS(=O)(=O)c1cccc(-c2ccc3cnc(Nc4ccc5c(c4)NC(=O)C(C)(C)O5)nn23)c1", "note": "[Example 1376, N-tert-Butyl-3-[2-(2,2-dimethyl-3-oxo-3,4-dihydro-2H-1,4-benzoxazin-6-ylamino)-pyrrolo[2,1-f][1,2,4]triazin-7-yl]-benzenesulfonamide]", "values": [
      {"measurement": "IC50", "setting": "ALK; ALK Kinase Inhibition", "result": "1000 to 10000", "unit": "nM"},
      {"measurement": "IC50", "setting": "JAK2; JAK2 Kinase Inhibition", "result": "< 100", "unit": "nM"}
    ]}
  ]
}
